Data as given in US20140378460A1, “COMPOSITIONS AND METHODS FOR TREATING NEURODEGENERATIVE DISEASE” (COGNITION THERAPEUTICS, INC., priority 2011, published 2014).

Experiments:
HepG2 tumor cell line = experiment: HepG2 toxicity; assay type: cell-based; conditions: 10 μM
D3(h) (agonist effect) = D3(h) (agonist effect) (Homo sapiens, UniProt P35462); experiment: Receptor panel, block of downstream signaling; assay type: cell-based
Procedure: (§1) It was also tested for its ability to block downstream signaling induced by agonists or antagonists of a given human receptor.

[1] = molecular target: alpha 1A (h) (antagonist effect) (Homo sapiens, UniProt P35348); experiment: Receptor panel, block of downstream signaling; assay type: cell-based; conditions: read-out: % Inhibition of Control
alpha 1A (h) (antagonist effect), sequence (P35348 whole entry): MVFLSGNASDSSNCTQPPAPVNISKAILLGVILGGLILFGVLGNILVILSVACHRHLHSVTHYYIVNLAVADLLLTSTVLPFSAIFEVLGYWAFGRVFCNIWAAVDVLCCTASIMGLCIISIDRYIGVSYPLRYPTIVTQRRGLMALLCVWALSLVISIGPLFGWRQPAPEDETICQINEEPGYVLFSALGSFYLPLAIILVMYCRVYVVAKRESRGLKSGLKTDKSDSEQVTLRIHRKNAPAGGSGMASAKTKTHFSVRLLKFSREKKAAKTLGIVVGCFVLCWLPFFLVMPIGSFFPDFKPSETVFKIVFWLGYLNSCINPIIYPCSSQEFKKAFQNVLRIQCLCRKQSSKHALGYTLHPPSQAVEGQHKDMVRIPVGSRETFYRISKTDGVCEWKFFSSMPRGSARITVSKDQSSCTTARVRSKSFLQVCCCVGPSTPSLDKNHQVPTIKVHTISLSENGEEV
Procedure: as §1

[2] = system: Na+ channel (site 2) (antagonist radioligand); experiment: Receptor panel, inhibition of binding
[3] = Genotoxicity (AMES, micronucleus, bacterial cytotox); conditions: 10 μM
[4] = system: caspase-3 in neuronal cultures; experiment: Caspase-3 activity in neurons; assay type: cell-based
neuronal cultures = experiment: Neuronal nuclear intensity / morphology; conditions: 24 hours
[5] = system: caspase-3 in SKOV-3 human ovarian cancer cells; experiment: Caspase-3 activity in tumor cells; assay type: cell-based
[6] = system: SKOV-3 human ovarian cancer cell line; experiment: MTS tumor cell viability assay; assay type: cell-based
Procedure: The cytotoxicity of compounds shown below was determined using the CellTiter96 Aqueous One Solution Assay (Promega, Madison, Wis.). […] The plate was read at 490 nm in a Victor3 plate reader (PerkinElmer Life and Analytical Sciences, Shelton, Conn.). The EC^50 value, defined as the concentration of the sigma ligand required to inhibit cell viability by 50% relative to untreated cells, was determined from the dose response curve for each cell line.

sigma-2 receptor [7] = molecular target: T1, sigma-2 receptor (Rattus norvegicus, UniProt Q5U3Y7); experiment: Sigma-2 competitive radioligand binding, [3H]DTG with 300 nM (+)pentazocine, rat cerebral cortex membranes
T1 sequence (Q5U3Y7 1-176): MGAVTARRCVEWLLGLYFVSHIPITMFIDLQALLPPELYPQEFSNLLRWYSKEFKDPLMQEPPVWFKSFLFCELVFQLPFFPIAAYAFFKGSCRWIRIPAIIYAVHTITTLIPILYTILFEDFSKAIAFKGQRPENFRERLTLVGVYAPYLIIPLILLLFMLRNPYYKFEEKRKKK
Procedure: (§2) Reactions were terminated by rapid filtration through Whatman GF/C filters using a Brandel 12R cell harvester followed by two washes with ice-cold buffer. Radioactivity on the dried filter discs was measured using a liquid scintillation analyzer (Tri-Carb 2900TR; PerkinElmer Life and Analytical Sciences). The displacement curves were plotted and the Ki values of the test ligands for the receptor subtypes were determined using GraphPad Prism (GraphPad Software Inc., San Diego, Calif.). The percentage specific binding was determined by dividing the difference between total bound (disintegrations per minute) and nonspecific bound (disintegrations per minute) by the total bound (disintegrations per minute).

[8] = system: sigma 2 (agonist radioligand); experiment: Receptor panel, inhibition of binding; conditions: Compound II 10 uM
Sigma-1 receptors = Sigma-1 receptors (Homo sapiens, UniProt Q99720); experiment: Sigma-1 competitive radioligand binding, [3H](+)pentazocine, Jurkat cell membranes
Sigma-1 receptors, sequence (Q99720 whole entry): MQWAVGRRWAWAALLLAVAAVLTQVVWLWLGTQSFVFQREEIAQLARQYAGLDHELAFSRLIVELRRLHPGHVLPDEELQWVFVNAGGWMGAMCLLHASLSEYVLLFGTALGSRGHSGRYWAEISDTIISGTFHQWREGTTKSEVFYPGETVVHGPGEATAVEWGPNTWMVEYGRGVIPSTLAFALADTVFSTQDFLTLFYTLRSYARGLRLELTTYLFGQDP
Procedure: as §2

sigma-2 receptor [9] = molecular target: T1, sigma-2 receptor; experiment: Competitive Radioligand Binding Assay 2, sigma-2, rat liver membrane homogenates; set-up: conducted using rat liver membrane homogenates; from tissue; host or cells: rat liver membrane homogenates; conditions: read-out: Ki at sigma-2 receptors
Procedure: Test compounds were dissolved in N,N-Dimethylformamide (DMF), dimethyl sulfoxide (DMSO) or ethanol and then diluted in 50 mM Tris-HCl pH 7.4 buffer containing 150 mM NaCl and 100 mM EDTA. Membrane homogenates were made from guinea pig brain for sigma-1 binding assay and rat liver for sigma-2 binding assay. Membrane homogenates were diluted with 50 mM Tris-HCl buffer, pH 8.0 and incubated at 25° C. in a total volume of 150 uL in 96 well plates with the radioligand and test compounds with concentrations ranging from 0.1 nM to 10 uM. After incubation was completed, the reactions were terminated by the addition of 150 uL of ice-cold wash buffer (10 mM Tris HCl, 150 mM NaCl, pH 7.4) using a 96 channel transfer pipette (Fisher Scientific, Pittsburgh, Pa.) and the samples harvested and filtered rapidly through 96 well fiber glass filter plate (Millipore, Billerica, Mass.) that had been presoaked with 100 uL of 50 mM Tris-HCl buffer. Each filter was washed four times with 200 uL of ice-cold wash buffer (10 mM Tris-HCl, 150 mM NaCl, pH 7.4).
The binding affinity, Ki values was calculated using the method of Cheng and Prusoff.

[10] = system: Abeta oligomer binding to primary neurons; experiment: Abeta 1-42 oligomer binding assay; assay type: cell-based, rat
Procedure: In this assay, Abeta oligomers were brought in contact with mature primary neurons in culture and their binding was determined by immunohistochemistry (anti-Abeta antibody) and quantified by image processing. The amount of Abeta in neuronal dendrites is assessed by counting the number of labeled puncta on the neuritis. […] This labeling is associated with synapses, co-localizing with the post-synaptic scaffold protein PSD-95 (Lacor et al., '04). […] The number of synapses can also be quantified in this assay by immunofluorochemistry. Similar procedures for binding assays can be found in the literature. […] Review.
Primary hippocampal neuronal culture was established as in the membrane trafficking assay above. […] Pretreatment with compounds to be tested lasted for 1 hr and addition of Abeta oligomers or no oligomer (vehicle alone) in a final concentration of 70 ul was followed by incubation for an additional 23 hrs.
The plates were then washed 3× with PBS for 5 min each. The plates were blocked at RT for 1 hr in 5% goat serum and 0.5% Triton X-100 in PBS. […] Primary antibodies were incubated overnight at 4° C. The plates were then washed 3× with PBS for 5 min each. […] Secondary antibodies were incubated at RT for 1 hr. The plates were washed once with PBS. DAPI (4′,6-diamidino-2-phenylindole, Invitrogen) was then applied at 0.03 ug/ul and incubated at RT for 5 min, then washed with PBS.

sigma-2 receptor [11] = conditions: 1 μM each; 18.4 nM [3H]-RHM-1

D3(h) (agonist effect), sequence (P35462 whole entry): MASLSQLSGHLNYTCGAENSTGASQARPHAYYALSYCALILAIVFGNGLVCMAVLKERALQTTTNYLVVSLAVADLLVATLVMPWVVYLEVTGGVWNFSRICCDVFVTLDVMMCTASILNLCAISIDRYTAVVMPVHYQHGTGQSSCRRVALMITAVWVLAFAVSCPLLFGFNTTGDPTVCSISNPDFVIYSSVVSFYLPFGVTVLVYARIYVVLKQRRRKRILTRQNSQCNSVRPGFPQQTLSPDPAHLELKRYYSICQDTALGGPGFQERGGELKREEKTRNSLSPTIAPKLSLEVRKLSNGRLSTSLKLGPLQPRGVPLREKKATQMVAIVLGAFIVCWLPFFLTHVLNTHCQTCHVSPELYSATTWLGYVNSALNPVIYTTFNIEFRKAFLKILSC

For COc1cc(CCC(C)NCc2ccc(C(F)(F)F)cc2)ccc1O (stereo not drawn) [Compound II], the HepG2 toxicity (HepG2 tumor cell line) was 66%, the “Other Targets: D3” value (D3(h) (agonist effect); Table 11E) was “D3 (4 uM), Mu” and the inhibition at 10 µM (D3(h) (agonist effect); read-out: % Inhibition of Control) was 66%. The inhibition at 10 µM [1] was 56%, the “% Inhibition of Control” value ([2]; Compound II 10 uM) was 54% and the “Other Targets: Na + ch2” value ([2]; Table 11E) was “Na + ch2 (2 uM)”. For the same molecule, the “Genotoxicity” value [3] was “no genotoxicity”, the “Block of SV-119-induced caspase-3 activation in neurons” value [4] was “blocked caspase-3 activation” and the “Caspase-3 activity induced in neurons” value [4] was “did not induce caspase-3 activity”. For the same molecule, the “Nuclear morphology / nuclear intensity in neurons” value (neuronal cultures) was “did not decrease nuclear intensity”, the “Block of SV-119-induced caspase-3 activation in tumor cells” value [5] was “do not block caspase-3 activation” and the “Caspase-3 activity induced in tumor cells” value [5] was “did not induce caspase-3 activity”. The IC50 ([6]; Homo sapiens, SK-OV-3, tumor cell viability, 48 hrs) was 150000 ± 12000 nM, the Action ([6]; by EC50 relative to siramesine) was “Antagonist” and the Ki (sigma-2 receptor [7]; Ki at sigma-2 receptors, displacement of [3H]DTG/300 nM (+)-pentazocine, rat neocortex homogenate) was 9 nM. It also gave a Ki (sigma-2 receptor [7]; S2 binding Ki (nM), Table 11B) of 9 nM, a Ki (sigma-2 receptor [7]; Sigma 2 Binding Ki (nM), Table 2, own compounds) of 9 nM and a Ki (sigma-2 receptor [7]; Sigma Affinity (S2) nM, Table 11E, own compounds) of 9 nM. The “% Inhibition of Control” value [8] was 89%, the Ki (Sigma-1 receptors; Ki at sigma-1 receptors, displacement of [3H]-(+)-pentazocine, human Jurkat cell membranes) was 500 nM and the Ki (Sigma-1 receptors; S1 binding Ki (nM), Table 11B) was 500 nM. The Ki (Sigma-1 receptors; Sigma 1 Binding Ki (nM), Table 2, own compounds) was 500 nM, the Ki (Sigma-1 receptors; Sigma Affinity (S1) nM, Table 11E, own compounds) was 500 nM and the Ki (sigma-2 receptor [9]) was 59.7 nM. For the same molecule, the “Decrease of Abeta binding intensity (Abeta puncta)” value ([10]; FIG. 3D) was 18%, the “Partial block of binding of Abeta oligomer ligand to neurons” value ([10]; imaging processing algorithm) was “about 25%” and the “Displacement of [3H]-RHM-1” value (sigma-2 receptor [11]) was “partially displace”.
